Assay results reported in US9750449B2, “Method of assessing skin” (Johnson & Johnson Consumer Inc., priority 2003, dated 2017).

Legend:
facial skin [1] = assay: In vivo facial skin fluorescence after daily topical retinol cream versus vehicle; parameters: species or system human; details: cheek
Excerpt: In vivo fluorescence spectroscopy can be performed for example using a fiber optic probe attached to a spectrofluorimeter (e.g. the model SkinSkan (J Y Horiba, Edison, N.J.)). The method requires: a) a UV radiation source (e.g., a Xenon arc lamp or a mercury lamp), b) a method of selecting the radiation wavelength (e.g. a monochromator, a prism, or a grating), c) a method of delivery of the radiation to the tissue (e.g. a fiber bundle), d) a method of collection of the emitted radiation from the tissue (e.g. a fiber bundle), e) a method of selecting the emitted radiation wavelength (e.g. a monochromator, a prism, or a grating), and f) a method of detecting the emitted radiation (e.g. a photomultiplier, a single photodiode, a photodiode array, or a CCD array). See, e.g., Stamatas G N, et al., J Invest Dermatol 118(2):295-302, 2002.
Measurements were preformed by placing the fiber optic probe in contact with the skin site of interest. Before each set of measurements, the instrument was spectrally calibrated for excitation and emission in the region 250-650 nm. […]
Acquisition of excitation spectra was the preferred method of measuring in vivo skin fluorescence. […]
In order to account for variations in skin native pigmentation that attenuates the detected fluorescence signal, fluorescence intensity was normalized with the diffuse reflectance signal of the same skin site at the corresponding wavelength. […] The measured fluorescence in this wavelength region arises from the dermis (Gillies et al, 2000, Kollias et al, 1998), which means that excitation light has to travel through the whole epidermis where it is attenuated by epidermal melanin and proteins, both of which absorb strongly in the UV. […] Furthermore, the intensity of the light source is low below 300 nm and normalization of the fluorescence by the diffuse reflectance signal in this wavelength range amplified the noise. […] To overcome this problem, the tryptophan fluorescence signal may be normalized to another fluorescence band, rather than to the diffuse reflectance value at 295 nm. […]

facial skin [2] = assay: Visual observation of the appearance of wrinkles in treated areas; type: in vivo, human; details: cream with 0.15% retinol applied daily, vehicle cream alone had no effect

Question: Which results are given for `CC1=C(/C=C/C(C)=C/C=C/C(C)=C/CO)C(C)(C)CCC1` [retinol]?
Answer: rate of decrease in the 295 nm band fluorescence (facial skin [1]; cream with 0.15% retinol and SPF 15 sunscreen applied daily, measured at baseline, 3 and 6 months, placebo −0.04 units/month): −0.01 units/month; change of the 390 nm band fluorescence over the period of the study (facial skin [1]; cream with 0.15% retinol applied daily, 6 months): did not significantly change; normalized tryptophan fluorescence values (I295nm/I390nm) over time (facial skin [1]; cream with 0.15% retinol applied daily, 6 months, p<0.05 versus vehicle (−0.062±0.029 ratio units per month)): remained virtually constant; appearance of wrinkles (visual observations) (facial skin [2]): reduction in the appearance of wrinkles
